In ChEMBL document CHEMBL3232945 (Eur J Med Chem, 2014):

How the values were obtained:
Rattus norvegicus [1] = assay: Toxicity in anaesthetized-Wistar rat assessed as P-Q ECG interval at 40 mg/kg, ip measured immediately at 0 min (reference value: 52.4 +/- 0.927 ms); assay type: organism-based; design: dose 40 mg/kg, route intraperitoneal; settings: in vivo, 0 h
Rattus norvegicus [2] = assay: Toxicity in anaesthetized-Wistar rat assessed as QRS ECG interval at 40 mg/kg, ip after 30 mins (reference value: 19.9 +/- 1.393 ms); assay type: organism-based; design: dose 40 mg/kg, route intraperitoneal; settings: in vivo, 0.5 h
Rattus norvegicus [3] = assay: Toxicity in anaesthetized-Wistar rat assessed as P-Q ECG interval at 40 mg/kg, ip after 15 mins (reference value: 52.2 +/- 1.158 ms); assay type: organism-based; design: dose 40 mg/kg, route intraperitoneal; settings: in vivo, 0.25 h
Rattus norvegicus [4] = assay: Toxicity in anaesthetized-Wistar rat assessed as P-Q ECG interval at 40 mg/kg, ip after 45 mins (reference value: 52.5 +/- 0.780 ms); assay type: organism-based; design: dose 40 mg/kg, route intraperitoneal; settings: in vivo, 0.75 h
Rattus norvegicus [5] = assay: Antihypertensive activity in Wistar rat assessed as mean arterial pressure at 40 mg/kg, ip after 30 mins (reference value: 194.72 +/- 1.002 mmHg); assay type: functional, Artery; settings: route intraperitoneal
Rattus norvegicus [6] = assay: Antiarrhythmic activity in barium chloride-induced Wistar rat assessed as increase in mortality time at 40 mg/kg, ip administered 60 mins before barium chloride challenge (reference value: 682.8 +/- 9.656 secs); assay type: functional, Heart; settings: route intraperitoneal
Rattus norvegicus [7] = assay: Antihypertensive activity in Wistar rat assessed as mean arterial pressure at 40 mg/kg, ip after 15 mins (reference value: 195.68 +/- 1.623 mmHg); assay type: functional, Artery; settings: route intraperitoneal
Rattus norvegicus [8] = assay: Toxicity in […] normotensive Wistar rat assessed as mean arterial pressure at 40 mg/kg, ip after 30 mins (reference value: 94.68 +/- 1.213 mmHg); assay type: organism-based, Artery; design: dose 40 mg/kg, route intraperitoneal; settings: in vivo, 0.5 h
Rattus norvegicus [9] = assay: Toxicity in […] normotensive Wistar rat assessed as mean arterial pressure at 40 mg/kg, ip measured immediately at 0 min (reference value: 94.21 +/- 2.065 mmHg); assay type: organism-based, Artery; design: dose 40 mg/kg, route intraperitoneal; settings: in vivo, 0 h
Rattus norvegicus [10] = assay: Toxicity in anaesthetized-Wistar rat assessed as P-Q ECG interval at 40 mg/kg, ip after 60 mins (reference value: […] +/- 0.924 ms); assay type: organism-based; design: dose 40 mg/kg, route intraperitoneal; settings: in vivo, 1 h
Rattus norvegicus [11] = assay: Toxicity in anesthetized-normotensive Wistar rat assessed as heart rate at 40 mg/kg, ip after 30 mins (reference value: 317.68 +/- 7.631 bpm); assay type: organism-based; design: dose 40 mg/kg, route intraperitoneal; settings: in vivo, 0.5 h
Rattus norvegicus [12] = assay: Toxicity in anaesthetized-Wistar rat assessed as QRS ECG interval at 40 mg/kg, ip measured immediately at 0 min (reference value: 19.6 +/- 1.142 ms); assay type: organism-based; design: dose 40 mg/kg, route intraperitoneal; settings: in vivo, 0 h
Rattus norvegicus [13] = assay: Toxicity in anesthetized-normotensive Wistar rat assessed as heart rate at 40 mg/kg, ip after 60 mins (reference value: 314.96 +/- 9.442 bpm); assay type: organism-based; design: dose 40 mg/kg, route intraperitoneal; settings: in vivo, 1 h
Rattus norvegicus [14] = assay: Toxicity in anaesthetized-Wistar rat assessed as QRS ECG interval at 40 mg/kg, ip after 15 mins (reference value: 18.9 +/- 1.563 ms); assay type: organism-based; design: dose 40 mg/kg, route intraperitoneal; settings: in vivo, 0.25 h
Rattus norvegicus [15] = assay: Toxicity in anesthetized-normotensive Wistar rat assessed as heart rate at 40 mg/kg, ip measured immediately at 0 min (reference value: 316.62 +/- 9.643 bpm); assay type: organism-based; design: dose 40 mg/kg, route intraperitoneal; settings: in vivo, 0 h
Rattus norvegicus [16] = assay: Toxicity in […] normotensive Wistar rat assessed as mean arterial pressure at 40 mg/kg, ip after 60 mins (reference value: 95.07 +/- 1.973 mmHg); assay type: organism-based, Artery; design: dose 40 mg/kg, route intraperitoneal; settings: in vivo, 1 h
Rattus norvegicus [17] = assay: Toxicity in anaesthetized-Wistar rat assessed as Q-T ECG interval at 40 mg/kg, ip measured immediately at 0 min (reference value: 78.8 +/- 1.030 ms); assay type: organism-based; design: dose 40 mg/kg, route intraperitoneal; settings: in vivo, 0 h
Rattus norvegicus [18] = assay: Antihypertensive activity in Wistar rat assessed as mean arterial pressure at 40 mg/kg, ip measured immediately at 0 min (reference value: 194.08 +/- 1.962 mmHg); assay type: functional, Artery; settings: route intraperitoneal
Rattus norvegicus [19] = assay: Antiarrhythmic activity in barium chloride-induced Wistar rat assessed as increase in appearance time of arrhythmia at 40 mg/kg, ip administered 60 mins before barium chloride challenge (reference value: 129.4 +/- 4.373 sec); assay type: functional, Heart; settings: route intraperitoneal
Rattus norvegicus [20] = assay: Toxicity in anaesthetized-Wistar rat assessed as Q-T ECG interval at 40 mg/kg, ip after 30 mins (reference value: 78.3 +/- 0.860 ms); assay type: organism-based; design: dose 40 mg/kg, route intraperitoneal; settings: in vivo, 0.5 h
Rattus norvegicus [21] = assay: Toxicity in anaesthetized-Wistar rat assessed as P-Q ECG interval at 40 mg/kg, ip after 30 mins (reference value: […] +/- 0.927 ms); assay type: organism-based; design: dose 40 mg/kg, route intraperitoneal; settings: in vivo, 0.5 h
Rattus norvegicus [22] = assay: Toxicity in anaesthetized-Wistar rat assessed as Q-T ECG interval at 40 mg/kg, ip after 15 mins (reference value: 79.4 +/- 1.270 ms); assay type: organism-based; design: dose 40 mg/kg, route intraperitoneal; settings: in vivo, 0.25 h
Rattus norvegicus [23] = assay: Toxicity in anesthetized-normotensive Wistar rat assessed as heart rate at 40 mg/kg, ip after 45 mins (reference value: 316.82 +/- 8.452 bpm); assay type: organism-based; design: dose 40 mg/kg, route intraperitoneal; settings: in vivo, 0.75 h
Rattus norvegicus [24] = assay: Toxicity in […] normotensive Wistar rat assessed as mean arterial pressure at 40 mg/kg, ip after 15 mins (reference value: 93.81 +/- 1.543 mmHg); assay type: organism-based, Artery; design: dose 40 mg/kg, route intraperitoneal; settings: in vivo, 0.25 h
Rattus norvegicus [25] = assay: Toxicity in anaesthetized-Wistar rat assessed as QRS ECG interval at 40 mg/kg, ip after 60 mins (reference value: 19.3 +/- 0.873 ms); assay type: organism-based; design: dose 40 mg/kg, route intraperitoneal; settings: in vivo, 1 h
Rattus norvegicus [26] = assay: Toxicity in anaesthetized-Wistar rat assessed as Q-T ECG interval at 40 mg/kg, ip after 60 mins (reference value: 79.7 +/- 0.965 ms); assay type: organism-based; design: dose 40 mg/kg, route intraperitoneal; settings: in vivo, 1 h
Rattus norvegicus [27] = assay: Toxicity in anaesthetized-Wistar rat assessed as QRS ECG interval at 40 mg/kg, ip after 45 mins (reference value: 20.2 +/- 1.348 ms); assay type: organism-based; design: dose 40 mg/kg, route intraperitoneal; settings: in vivo, 0.75 h
Rattus norvegicus [28] = assay: Toxicity in anesthetized-normotensive Wistar rat assessed as heart rate at 40 mg/kg, ip after 15 mins (reference value: 313.93 +/- 9.912 bpm); assay type: organism-based; design: dose 40 mg/kg, route intraperitoneal; settings: in vivo, 0.25 h
Rattus norvegicus [29] = assay: Toxicity in […] normotensive Wistar rat assessed as mean arterial pressure at 40 mg/kg, ip after 45 mins (reference value: 94.83 +/- 0.943 mmHg); assay type: organism-based, Artery; design: dose 40 mg/kg, route intraperitoneal; settings: in vivo, 0.75 h
Rattus norvegicus [30] = assay: Antihypertensive activity in Wistar rat assessed as mean arterial pressure at 40 mg/kg, ip after 45 mins (reference value: 193.96 +/- 0.865 mmHg); assay type: functional, Artery; settings: route intraperitoneal
Rattus norvegicus [31] = assay: Antihypertensive activity in Wistar rat assessed as mean arterial pressure at 40 mg/kg, ip after 60 mins (reference value: 195.11 +/- 0.531 mmHg); assay type: functional, Artery; settings: route intraperitoneal

Structure (SMILES) | Activity (Rattus norvegicus [1]) | Activity (Rattus norvegicus [2]) | Activity (Rattus norvegicus [3]) | Activity (Rattus norvegicus [4]) | Activity (Rattus norvegicus [5]) | Time (Rattus norvegicus [6]) | Activity (Rattus norvegicus [7]) | Activity (Rattus norvegicus [8]) | Activity (Rattus norvegicus [9]) | Activity (Rattus norvegicus [10]) | Activity (Rattus norvegicus [11]) | Activity (Rattus norvegicus [12]) | Activity (Rattus norvegicus [13]) | Activity (Rattus norvegicus [14]) | Activity (Rattus norvegicus [15]) | Activity (Rattus norvegicus [16]) | Activity (Rattus norvegicus [17]) | Activity (Rattus norvegicus [18]) | Time (Rattus norvegicus [19]) | Activity (Rattus norvegicus [20]) | also measured
CN1CCN(CC(O)CN2C(=O)/C(=C\c3ccccc3)S/C2=N\c2ccccc2)CC1 (stereo not drawn) | 53 ms | 23.2 ms | 53.2 min | 54.9 min | 157.99 mmHg | 1276 s | 182.76 mmHg | 63.43 mmHg | 91.93 mmHg | 55.6 min | 256.32 bpm | 22.4 min | 302.28 bpm | 22.6 min | 305.65 bpm | 74.63 mmHg | 74.5 min | 196.43 mmHg | 349.7 s | 75.2 min | Activity (Rattus norvegicus [21]): 54.4 min; Activity (Rattus norvegicus [22]): 74.8 min; Activity (Rattus norvegicus [23]): 283.56 bpm; Activity (Rattus norvegicus [24]): 79.37 mmHg; Activity (Rattus norvegicus [25]): 24 min; Activity (Rattus norvegicus [26]): 75.6 ms; Activity (Rattus norvegicus [27]): 23.6 min; Activity (Rattus norvegicus [28]): 290.24 bpm; Activity (Rattus norvegicus [29]): 64.51 mmHg; Activity (Rattus norvegicus [30]): 134.44 mmHg; Activity (Rattus norvegicus [31]): 162.19 mmHg
O=C1/C(=C\c2ccccc2)S/C(=N\c2ccccc2)N1CC(O)CN1CCN(Cc2ccccc2)CC1 (stereo not drawn) | 49.8 ms | 23.8 ms | 50.4 min | 51.3 min | 160.63 mmHg | 986.7 s | 179.02 mmHg | 78.19 mmHg | 95.09 mmHg | 52.7 min | 283.52 bpm | 23.4 min | 312.21 bpm | 23.2 min | 333.62 bpm | 85.44 mmHg | 74.3 min | 194.51 mmHg | 296.9 s | 73.2 min | Activity (Rattus norvegicus [21]): 50.9 min; Activity (Rattus norvegicus [22]): 74.9 min; Activity (Rattus norvegicus [23]): 298.21 bpm; Activity (Rattus norvegicus [24]): 92.1 mmHg; Activity (Rattus norvegicus [25]): 23.7 min; Activity (Rattus norvegicus [26]): 74.2 ms; Activity (Rattus norvegicus [27]): 23.1 min; Activity (Rattus norvegicus [28]): 312.34 bpm; Activity (Rattus norvegicus [29]): 72.57 mmHg; Activity (Rattus norvegicus [30]): 166.41 mmHg; Activity (Rattus norvegicus [31]): 179.51 mmHg
O=C1/C(=C\c2ccccc2)S/C(=N\c2ccccc2)N1CC(O)CN1CCCC1 (stereo not drawn) | 50.2 ms | 22.5 ms | 51.6 min | 53.3 min | 148.37 mmHg | 918.8 s | 165.01 mmHg | 74.76 mmHg | 93.02 mmHg | 52.8 min | 256.85 bpm | 20.5 min | 309.32 bpm | 21.3 min | 318.73 bpm | 73.12 mmHg | 70.6 min | 196.1 mmHg | 285.3 s | 72.6 min | Activity (Rattus norvegicus [21]): 54.3 min; Activity (Rattus norvegicus [22]): 71.2 min; Activity (Rattus norvegicus [23]): 287.15 bpm; Activity (Rattus norvegicus [24]): 84.63 mmHg; Activity (Rattus norvegicus [25]): 20.6 min; Activity (Rattus norvegicus [26]): 70.9 ms; Activity (Rattus norvegicus [27]): 21.1 min; Activity (Rattus norvegicus [28]): 298.54 bpm; Activity (Rattus norvegicus [29]): 69.69 mmHg; Activity (Rattus norvegicus [30]): 149.39 mmHg; Activity (Rattus norvegicus [31]): 177.56 mmHg
